The values below are quoted from earlier work in patent publication US5010056A, “Pharmaceutical composition for intranasal administration, comprising GH-releasing hormone, a cholinergic agonist and optionally a bile salt” (priority 1987, dated 1991).

Where two headings read alike, the source gives them in different places.

The conditions of series [1]: orally administered.
A further series relates to GH secretion. The following applies: previous administration of an oral dose.

For `CN(C)C(=O)Oc1ccc[n+](C)c1` [pyridostigmine], in series [1], the bioavailability entry is given as “low”. Besides, in the series with GH secretion, the “effect on GH secretion and on the effect of intravenously injected GHRH” value was “able to stimulate GH secretion and significantly increase the effect of intravenously injected GHRH”.
Regarding GH-releasing hormone [GHRH], the bioavailability result (nasal administration) is listed as “low”. The “doses required nasally to obtain comparable effects, relative to parenteral doses” value (nasal versus parenteral administration) is 300-1000 times the parenteral doses.
